Results published in ChEMBL document CHEMBL1154459, “Synthesis and evaluation of a series of benzopyran derivatives as PPAR alpha/gamma agonists” (Eur J Med Chem, 2008).
The source made the active and inactive calls. The rule behind the calls is not given here.

What was measured:
[1] = biological target: T1, Peroxisome proliferator-activated receptor alpha (Homo sapiens, UniProt Q07869); test: Agonist activity at human PPARalpha in U2OS cells by transactivation assay
T1 sequence (Q07869 whole entry): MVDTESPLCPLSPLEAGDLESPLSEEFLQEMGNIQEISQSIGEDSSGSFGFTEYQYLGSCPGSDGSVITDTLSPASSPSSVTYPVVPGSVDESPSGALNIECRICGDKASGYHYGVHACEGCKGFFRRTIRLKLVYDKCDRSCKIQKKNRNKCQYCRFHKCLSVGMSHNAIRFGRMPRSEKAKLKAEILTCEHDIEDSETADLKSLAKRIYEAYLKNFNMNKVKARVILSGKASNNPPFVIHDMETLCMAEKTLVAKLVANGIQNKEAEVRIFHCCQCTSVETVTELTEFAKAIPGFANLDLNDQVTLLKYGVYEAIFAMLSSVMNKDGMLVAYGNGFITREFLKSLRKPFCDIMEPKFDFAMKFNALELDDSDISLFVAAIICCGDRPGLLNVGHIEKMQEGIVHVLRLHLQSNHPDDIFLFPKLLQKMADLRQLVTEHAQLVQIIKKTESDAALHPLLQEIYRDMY

[2] = biological target: T2, Peroxisome proliferator-activated receptor alpha (Homo sapiens) (UniProt Q07869); test: Agonist activity at human PPARalpha in U2OS cells by transactivation assay relative to WY-14643; assay type: functional, cell-based
T2 sequence (whole entry): T1 sequence (Q07869 whole entry)

[3] = biological target: T3, Peroxisome proliferator-activated receptor gamma (Homo sapiens, UniProt P37231)
T3 sequence (P37231 whole entry): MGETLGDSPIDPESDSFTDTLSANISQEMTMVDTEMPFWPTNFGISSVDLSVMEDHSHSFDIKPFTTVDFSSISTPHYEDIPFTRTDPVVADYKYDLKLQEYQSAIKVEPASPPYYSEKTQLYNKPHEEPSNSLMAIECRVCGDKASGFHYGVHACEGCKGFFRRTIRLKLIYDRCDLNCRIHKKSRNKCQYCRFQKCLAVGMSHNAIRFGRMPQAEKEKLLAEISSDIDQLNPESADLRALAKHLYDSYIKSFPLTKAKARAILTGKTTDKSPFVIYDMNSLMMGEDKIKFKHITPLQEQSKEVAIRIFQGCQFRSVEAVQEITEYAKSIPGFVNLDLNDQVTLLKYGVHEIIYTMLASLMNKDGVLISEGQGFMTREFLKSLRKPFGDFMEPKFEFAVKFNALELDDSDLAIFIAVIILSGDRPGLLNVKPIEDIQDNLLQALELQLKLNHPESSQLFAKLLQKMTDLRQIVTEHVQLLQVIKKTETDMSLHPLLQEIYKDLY
Description: Agonist activity at human PPARgamma in U2OS cells by transactivation assay

Structure (SMILES)	EC50 [1] [µM]	%max [2]	EC50 [3] [µM]	EC50 ([1]; u2os)
COC(=O)c1cc2ccc(OCCc3nc(-c4ccc(OC)cc4)oc3C)cc2oc1=O	5.25	163%	0.001	
COC(=O)C1Cc2ccc(OCCc3nc(-c4ccc(C(C)(C)C)cc4)oc3C)cc2OC1=O (stereo unspecified)	0.1	26%	0.25	
COC(=O)C1Cc2ccc(OCCc3nc(-c4cccc(F)c4)oc3C)cc2OC1=O (stereo unspecified)	0.72	30%	0.17	
COC(=O)c1cc2ccc(OCCc3nc(-c4cccc([N+](=O)[O-])c4)oc3C)cc2oc1=O		inactive	3.55	Not Active
COC(=O)c1cc2ccc(OCCc3nc(-c4ccc(F)cc4)oc3C)cc2oc1=O	0.07	44%	1.62	
COC(=O)c1cc2ccc(OCCc3nc(-c4cccc(F)c4)oc3C)cc2oc1=O	1.29	38%	0.96	
COC(=O)c1cc2ccc(OCCc3nc(-c4ccc(C(C)(C)C)cc4)oc3C)cc2oc1=O	2.29	90%	1.74	
COC(=O)c1cc2ccc(OCCc3nc(-c4cccc(C(F)(F)F)c4)oc3C)cc2oc1=O	1.2	21%	0.42	
COC(=O)c1cc2ccc(OCCc3nc(-c4cccc(OC)c4)oc3C)cc2oc1=O	1.62	100%	0.35	
COC(=O)c1cc2ccc(OCCc3nc(-c4ccc(-c5ccccc5)cc4)oc3C)cc2oc1=O	1.23	116%	1.26	
Cc1cccc(Nc2cc(Cl)nc(SCC(=O)O)n2)c1C		100%		
COC(=O)C1Cc2ccc(OCCc3nc(-c4ccc(-c5ccccc5)cc4)oc3C)cc2OC1=O (stereo unspecified)	0.91	68%	1.12	
COC(=O)C1Cc2ccc(OCCc3nc(-c4ccc(OC)cc4)oc3C)cc2OC1=O (stereo unspecified)	1.74	96%	0.001	

Second part, the molecule after the results:

EC50 [1] [µM]	%max [2]	EC50 [3] [µM]	EC50 ([1]; u2os)	Structure (SMILES)
0.17	23%	0.16		COC(=O)C1Cc2ccc(OCCc3nc(-c4cccc(C(F)(F)F)c4)oc3C)cc2OC1=O (stereo unspecified)
0.14	42%	0.13		COC(=O)C1Cc2ccc(OCCc3nc(-c4ccccc4)oc3C)cc2OC1=O (stereo unspecified)
0.001	65%	0.001		COC(=O)c1cc2ccc(OCCc3nc(-c4ccc(C)cc4)oc3C)cc2oc1=O
0.91	94%	0.001		COC(=O)C1Cc2ccc(OCCc3nc(-c4ccc(C)cc4)oc3C)cc2OC1=O (stereo unspecified)
1.55	83%	0.001		COC(=O)C1Cc2ccc(OCCc3nc(-c4cccc(C)c4)oc3C)cc2OC1=O (stereo unspecified)
	inactive	0.001	Not Active	COC(=O)c1cc2ccc(OCCc3nc(-c4cccc(C)c4)oc3C)cc2oc1=O
0.1	98%	0.001		COC(=O)C1Cc2ccc(OCCc3nc(-c4ccc(F)cc4)oc3C)cc2OC1=O (stereo unspecified)
1.2	23%	0.1		COC(=O)C1Cc2ccc(OCCc3nc(-c4cccc(OC)c4)oc3C)cc2OC1=O (stereo unspecified)
